Results: patent US10363253B2, “Combination products for the treatment of RSV” (priority 2016, dated 2019)
Where two headings read alike, the source gives them in different places.

Tested on: rgRSV224, an engineered RSV strain that encodes for eGFP
Assay type: cell-based
Experimental: To evaluate their combined antiviral effect against RSV, in vitro combination studies were performed with JNJ-53718678 (“compound A”) and various compounds with different mechanisms-of-action (“compound B”). In short, 9 concentrations of Compound A were combined with 6 or 7 concentrations of a certain compound B. HeLa cells were infected with rgRSV224, an engineered RSV strain that encodes for eGFP (Hallak L K, Spillmann D, Collins P L, Peeples M E. Glycosaminoglycan sulfation requirements for respiratory syncytial virus infection; Journal of Virology (2000), 74(22), 10508-13), in the presence of various concentrations of compound A and compound B individually or in combination.
Compound stock solutions were 5 mM in 100% DMSO, with following exceptions: ribavirin, 20 mM; A 60444, 10 mM; CR9501, 141 μM in PBS; palivizumab, 156 μM in PBS; MDT 637, 100 μM in methanol. First, the compounds were serially diluted in 3-fold dilution series in DMSO; CR9501 and palivizumab were serially diluted in cell culture medium, and MDT 637 in methanol. The concentration series were diluted 100-fold in cell culture medium to achieve a combination matrix. 10 μL of these compound solutions were transferred to black 384-well clear-bottom tissue-culture treated plates. Next, 10 μL of a […] HeLa cell suspension was added to achieve 3000 cells per well. Finally, 10 μL of diluted virus stock was added to achieve an MOI of 1. The final DMSO concentration of all wells was 0.5% DMSO, except for the MDT 637 experiment where it was 0.25% DMSO+0.25% methanol. Each combination of compound concentrations was tested in 4 replicates on 3 separate plates, resulting in a total of 12 replicates. The plates were incubated for 3 days at 37° C. in a humidified atmosphere at 5% CO2. The GFP signal was measured with PerkinElmer EnVision apparatus using a 405 nm filter.
The method of Harbron (Statistics in Medicine, 2010, DOI:10.1002/sim3916) was used to assess synergy. Using the Loewe definition, two compounds are characterized as being additive, synergistic or antagonistic by:
where d1 and d2 represent the doses of the two compounds that in combination produce an effect y, and Dy,1 and Dy,2 represent the doses of the two compounds that produce the same effect, y, when administered as a monotherapy. A 3PL model (3-parameter log-logistic model) was used for the monotherapy dose-response data, where the baseline response was fixed at one.
Following Harbron's approach, the following models were fitted to the data: • “Additive”: assuming no interaction between the two compounds • “Uniform”: assuming a constant interaction index τ across all dose combinations • “Linear A”: assuming the interaction index linearly depends on the log 10 dose of compound A: z=τ1+τ2 log 10(dA) • “Separate A”: assuming the interaction index τ takes a separate value for each dose of compound A The latter two models were also considered for compound B: • “Linear B”: assuming the interaction index linearly τ depends on the log 10 dose of compound B: τ=τ1+τ2 log 10(dB) • “Separate B”: assuming the interaction index τ takes a separate value for each dose of compound B

Compound: O=C(NC1CC1)c1cc2c(s1)-c1ccccc1N(C(=O)c1ccc(NC(=O)c3cccnc3N3CCC4(CC3)COC4)cc1)CC2 [AZ-27, N-cyclopropyl-5,6-dihydro-6-[4-[[[2-(2-oxa-7-azaspiro [3.5]non-7-yl)-3-pyridinyl]carbonyl]-amino]benzoyl]-4H-thieno [3,2-d][1]benzazepine-2-carboxamide, reference compound]
- normalized GFP signal (A = 0, B (AZ-27) = 17): 1.03
- normalized GFP signal (A = 0, B (AZ-27) = 51): 1.00
- normalized GFP signal (A = 0, B (AZ-27) = 154): 0.53
- normalized GFP signal (A = 0, B (AZ-27) = 463): 0.07
- normalized GFP signal (A = 0, B (AZ-27) = 1389): 0.01
- normalized GFP signal (A = 0, B (AZ-27) = 4167): 0.00

Compound: COc1ccc(CCNCCCN2C(=O)c3c(cc(N)c4nc(-c5ccc(C)c([N+](=O)[O-])c5)[nH]c34)C(C)(C)C2=O)cc1OC [CAS 851658-10-1, 4-amino-8-[3-[[2-(3,4-dimethoxyphenyl)ethyl]amino]propyl]-6,6-dimethyl-2-(4-methyl-3-nitrophenyl)-3H-imidazo[4,5-h]isoquinoline-7,9(6H,8H)-dione, reference compound]
- normalized GFP signal (A = 0, B (CAS 851658-10-1) = 1.9): 0.99
- normalized GFP signal (A = 0, B (CAS 851658-10-1) = 5.7): 0.97
- normalized GFP signal (A = 0, B (CAS 851658-10-1) = 17): 0.89
- normalized GFP signal (A = 0, B (CAS 851658-10-1) = 51): 0.74
- normalized GFP signal (A = 0, B (CAS 851658-10-1) = 154): 0.38
- normalized GFP signal (A = 0, B (CAS 851658-10-1) = 463): 0.05
- normalized GFP signal (A = 0, B (CAS 851658-10-1) = 1389): 0.01

Compound: CS(=O)(=O)CCCn1c(Cn2c(=O)n(CC(F)(F)F)c3ccncc32)cc2cc(Cl)ccc21 [Compound A, 3-({5-chloro-1-[3-(methylsulfonyl)propyl]-1H-indol-2-yl}methyl)-1-(2,2,2-trifluoroethyl)-1,3-dihydro-2H-imidazo[4,5-c]pyridin-2-one]
- normalized GFP signal (A = 0.19 nM, B (A-60444) = 0): 0.96
- normalized GFP signal (A = 0.19 nM, B (AZ-27) = 0): 0.98
- normalized GFP signal (A = 0.19 nM, B (CAS 851658-10-1) = 0): 0.99
- normalized GFP signal (A = 0.19 nM, B (CR9501) = 0): 1.05
- normalized GFP signal (A = 0.19 nM, B (GS-5806) = 0): 0.99
- normalized GFP signal (A = 0.19 nM, B (MDT-637) = 0): 0.98
- normalized GFP signal (A = 0.19 nM, B (palivizumab) = 0): 1.04
- normalized GFP signal (A = 0.19 nM, B (pulmocide compound) = 0): 0.96
- normalized GFP signal (A = 0.19 nM, B (ribavirin) = 0): 0.97
- normalized GFP signal (A = 0.57 nM, B (A-60444) = 0): 0.95
- normalized GFP signal (A = 0.57 nM, B (AZ-27) = 0): 0.96
- normalized GFP signal (A = 0.57 nM, B (CAS 851658-10-1) = 0): 0.96
- normalized GFP signal (A = 0.57 nM, B (CR9501) = 0): 1.01
- normalized GFP signal (A = 0.57 nM, B (GS-5806) = 0): 0.93
- normalized GFP signal (A = 0.57 nM, B (MDT-637) = 0): 0.97
- normalized GFP signal (A = 0.57 nM, B (palivizumab) = 0): 0.98
- normalized GFP signal (A = 0.57 nM, B (pulmocide compound) = 0): 0.92
- normalized GFP signal (A = 0.57 nM, B (ribavirin) = 0): 0.95
- normalized GFP signal (A = 1.7 nM, B (A-60444) = 0): 0.83
- normalized GFP signal (A = 1.7 nM, B (AZ-27) = 0): 0.89
- normalized GFP signal (A = 1.7 nM, B (CAS 851658-10-1) = 0): 0.83
- normalized GFP signal (A = 1.7 nM, B (CR9501) = 0): 0.89
- normalized GFP signal (A = 1.7 nM, B (GS-5806) = 0): 0.83
- normalized GFP signal (A = 1.7 nM, B (MDT-637) = 0): 0.85
- normalized GFP signal (A = 1.7 nM, B (palivizumab) = 0): 0.86
- normalized GFP signal (A = 1.7 nM, B (pulmocide compound) = 0): 0.78
- normalized GFP signal (A = 1.7 nM, B (ribavirin) = 0): 0.87
- normalized GFP signal (A = 5.1 nM, B (A-60444) = 0): 0.55
- normalized GFP signal (A = 5.1 nM, B (AZ-27) = 0): 0.71
- normalized GFP signal (A = 5.1 nM, B (CAS 851658-10-1) = 0): 0.50
- normalized GFP signal (A = 5.1 nM, B (CR9501) = 0): 0.64
- normalized GFP signal (A = 5.1 nM, B (GS-5806) = 0): 0.47
- normalized GFP signal (A = 5.1 nM, B (MDT-637) = 0): 0.43
- normalized GFP signal (A = 5.1 nM, B (palivizumab) = 0): 0.57
- normalized GFP signal (A = 5.1 nM, B (pulmocide compound) = 0): 0.56
- normalized GFP signal (A = 5.1 nM, B (ribavirin) = 0): 0.63
- normalized GFP signal (A = 15 nM, B (A-60444) = 0): 0.38
- normalized GFP signal (A = 15 nM, B (AZ-27) = 0): 0.45
- normalized GFP signal (A = 15 nM, B (CAS 851658-10-1) = 0): 0.31
- normalized GFP signal (A = 15 nM, B (CR9501) = 0): 0.41
- normalized GFP signal (A = 15 nM, B (GS-5806) = 0): 0.30
- normalized GFP signal (A = 15 nM, B (MDT-637) = 0): 0.26
- normalized GFP signal (A = 15 nM, B (palivizumab) = 0): 0.38
- normalized GFP signal (A = 15 nM, B (pulmocide compound) = 0): 0.43
- normalized GFP signal (A = 15 nM, B (ribavirin) = 0): 0.39
- normalized GFP signal (A = 46 nM, B (A-60444) = 0): 0.28
- normalized GFP signal (A = 46 nM, B (AZ-27) = 0): 0.25
- normalized GFP signal (A = 46 nM, B (CAS 851658-10-1) = 0): 0.19
- normalized GFP signal (A = 46 nM, B (CR9501) = 0): 0.28
- normalized GFP signal (A = 46 nM, B (GS-5806) = 0): 0.21
- normalized GFP signal (A = 46 nM, B (MDT-637) = 0): 0.16
- normalized GFP signal (A = 46 nM, B (palivizumab) = 0): 0.28
- normalized GFP signal (A = 46 nM, B (pulmocide compound) = 0): 0.36
- normalized GFP signal (A = 46 nM, B (ribavirin) = 0): 0.25
- normalized GFP signal (A = 139 nM, B (A-60444) = 0): 0.14
- normalized GFP signal (A = 139 nM, B (AZ-27) = 0): 0.17
- normalized GFP signal (A = 139 nM, B (CAS 851658-10-1) = 0): 0.10
- normalized GFP signal (A = 139 nM, B (CR9501) = 0): 0.21
- normalized GFP signal (A = 139 nM, B (GS-5806) = 0): 0.11
- normalized GFP signal (A = 139 nM, B (MDT-637) = 0): 0.06
- normalized GFP signal (A = 139 nM, B (palivizumab) = 0): 0.17
- normalized GFP signal (A = 139 nM, B (pulmocide compound) = 0): 0.20
- normalized GFP signal (A = 139 nM, B (ribavirin) = 0): 0.15
- normalized GFP signal (A = 417 nM, B (A-60444) = 0): 0.07
- normalized GFP signal (A = 417 nM, B (AZ-27) = 0): 0.07
- normalized GFP signal (A = 417 nM, B (CAS 851658-10-1) = 0): 0.06
- normalized GFP signal (A = 417 nM, B (CR9501) = 0): 0.10
- normalized GFP signal (A = 417 nM, B (GS-5806) = 0): 0.06
- normalized GFP signal (A = 417 nM, B (MDT-637) = 0): 0.02
- normalized GFP signal (A = 417 nM, B (palivizumab) = 0): 0.09
- normalized GFP signal (A = 417 nM, B (pulmocide compound) = 0): 0.11
- normalized GFP signal (A = 417 nM, B (ribavirin) = 0): 0.08
- normalized GFP signal (A = 1250 nM, B (A-60444) = 0): 0.04
- normalized GFP signal (A = 1250 nM, B (AZ-27) = 0): 0.04
- normalized GFP signal (A = 1250 nM, B (CAS 851658-10-1) = 0): 0.04
- normalized GFP signal (A = 1250 nM, B (CR9501) = 0): 0.06
- normalized GFP signal (A = 1250 nM, B (GS-5806) = 0): 0.03
- normalized GFP signal (A = 1250 nM, B (MDT-637) = 0): −0.00
- normalized GFP signal (A = 1250 nM, B (palivizumab) = 0): 0.05
- normalized GFP signal (A = 1250 nM, B (pulmocide compound) = 0): 0.06
- normalized GFP signal (A = 1250 nM, B (ribavirin) = 0): 0.04
